The results in this text go back to publication PMC3267017, “Design, synthesis and in vitro evaluation of novel bivalent S-adenosylmethionine analogues” (Bioorganic & Medicinal Chemistry Letters, 2012).

The assay concerns the target MetJ dimer–DNA complex (F-metC) (Escherichia coli, UniProt P0A8U6). The assay is described as follows: Fluorescence anisotropy assay: MetJ titrated into F-metC DNA and ligand, MetJ dimer–DNA complex formation. The format is binding. As to conditions: for EC50: F-metC 10 nM, average of three titrations, read-out: EC50, concentration of MetJ monomer required to promote half-maximal formation of its complex with the F-metC DNA; for Fold-improvement over monovalent control 11: unquaternised bivalent ligand 1 mM vs 11 at 2 mM; for Fold-improvement over monovalent control 4: ligands 2 mM. An excerpt:
A fluorescence anisotropy-based binding assay was used to compare the relative ability of SAM analogues to promote MetJ dimer–DNA complex formation. Since SAM has low affinity for MetJ in the absence of DNA,[8,13] measurements were made in the presence of the DNA fragment F-metC, a fluorescently-labeled analogue of the shortest naturally occurring operator sequence, metC.[14] Titration of MetJ into a solution containing fixed concentrations of F-metC and ligand allows the change in anisotropy related to ternary complex formation to be measured (Fig. 5).
Figure 5 Cartoon illustrating the fluorescence anisotropy assay. The SAM molecules promote the formation of a SAM–F-metC–protein complex, with two MetJ dimers bound to the 18 base-pair DNA duplex.
The half-maximal concentration of MetJ, EC50, required to promote complex formation was determined for each ligand. […] The monovalent ligands 11 and 12 (2 mM) and the bivalent ligands 9 and 10 (1 mM) all promoted the formation of the MetJ–DNA complex (Table 1). […] The unquaternised bivalent ligands 9a–e (1 mM) promoted complex formation up to about threefold more effectively than the corresponding monovalent analogue 11. Similarly, the quaternised bivalent ligands 10a and 10b promoted, respectively, complex formation 2.4- and 3.6-fold more effectively than the quaternised monovalent analogue 12.
Analysis of novel SAM analogues binding to MetJ in the presence of operator DNA was carried out using fluorescence anisotropy. Fluorescence anisotropy experiments were performed on a Spex Fluorolog Tau spectrofluorometer (HORIBA Jobin Yvon) controlled by Datamax software. The excitation and emission wavelengths were set to 488 nm and 517 nm respectively. Slit widths were set to 5 nm and all experiments were carried out at 19 °C. The detector integration time was 5 seconds and three readings were taken of each sample to obtain an average anisotropy. Free anisotropy values were 0.051-0.060. Increase in fluorescence anisotropy was observed upon titration of MetJ into a solution of F-metC (10 nM) with and without ligand ([…]) in TK buffer pH 7.6 (50 mM Trizma hydrochloride pH 7.6, 100 mM KCl) with a total starting volume of 200 µL. […] The final DMSO concentration was 2% or less. After each addition, the sample was mixed with a pipette and left to equilibrate for five minutes before the fluorescence anisotropy readings were acquired. The intensity of linear and perpendicular light, compared to the excitation light is measured experimentally and the anisotropy was calculated using the following equation:‖
The data was fitted to a sigmoidal growth logistic model using the following equation: […]
Where A1 refers to the initial value, A2 refers to the final value, x0 refers to the centre and p is a value relating to the slope of the transition. Errors refer the standard deviation of three titration repeats. An arbitrary weighting function with the following equation was employed: […]
A general note: Fluorescence polarisation rises when a labelled molecule tumbles more slowly, as on binding a larger partner.

Setting [1] is: monovalent ligand 2 mM, DMSO 2%.

Counter-ions that a name gives are not always drawn. Like-named read-outs stand apart in the source and are kept apart here.

Sequence of MetJ dimer–DNA complex (F-metC) (P0A8U6 2-105, one chain of several): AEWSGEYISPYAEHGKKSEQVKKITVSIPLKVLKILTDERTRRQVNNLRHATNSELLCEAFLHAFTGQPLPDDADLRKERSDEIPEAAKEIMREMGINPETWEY

With `CCCNC(=O)CCC[N+](C)(C)C[C@H]1O[C@@H](n2cnc3c(N)ncnc32)[C@H](O)[C@@H]1O` [Compound 5, reference compound], the EC50 (quaternised ligands 2 mM) came out at 0.15 ± 0.01 µM. With `CN(CC[C@H](N)C(=O)NCc1ccc(CNC(=O)[C@@H](N)CCN(C)C[C@H]2O[C@@H](n3cnc4c(N)ncnc43)[C@H](O)[C@@H]2O)cc1)C[C@H]1O[C@@H](n2cnc3c(N)ncnc32)[C@H](O)[C@@H]1O` [Compound 9a, N,N′-(1,4-Phenylenebismethylene)bis{(2′S)-2′-amino-4′-[5′′-deoxy-5′′-(methylamino)-adenosyl]butanamide}], the “Fold-improvement over monovalent control 11” value is 2.0-fold. In addition, under “bivalent ligand 1 mM, DMSO 2%”, the EC50 was 0.061 ± 0.003 µM.

In the case of `CN(CC[C@H](N)C(=O)NCc1cccc(CNC(=O)[C@@H](N)CCN(C)C[C@H]2O[C@@H](n3cnc4c(N)ncnc43)[C@H](O)[C@@H]2O)c1)C[C@H]1O[C@@H](n2cnc3c(N)ncnc32)[C@H](O)[C@@H]1O` [Compound 9b, N,N′-(1,3-Phenylenebismethylene)bis{(2′S)-2′-amino-4′-[5′′-deoxy-5′′-(methylamino)-adenosyl]butanamide}], the “Fold-improvement over monovalent control 11” value is 3.2-fold. The EC50 (bivalent ligand 1 mM, DMSO 2%) came to 0.037 ± 0.002 µM. As to `CN(CC[C@H](N)C(=O)NCc1ccccc1-c1ccccc1CNC(=O)[C@@H](N)CCN(C)C[C@H]1O[C@@H](n2cnc3c(N)ncnc32)[C@H](O)[C@@H]1O)C[C@H]1O[C@@H](n2cnc3c(N)ncnc32)[C@H](O)[C@@H]1O` [Compound 9c, N,N′-(Biphenyl-2,2′-diylybismethylene)bis{(2′′S)-2′′-amino-4′′-[5′′′-deoxy-5′′′-(methylamino)-adenosyl]butanamide}], the “Fold-improvement over monovalent control 11” value is 3.1-fold. Moreover, the EC50 (bivalent ligand 1 mM, DMSO 2%) was determined as 0.039 ± 0.001 µM. The corresponding values for `CN(CC[C@H](N)C(=O)NCc1cccc(-c2cccc(CNC(=O)[C@@H](N)CCN(C)C[C@H]3O[C@@H](n4cnc5c(N)ncnc54)[C@H](O)[C@@H]3O)c2)c1)C[C@H]1O[C@@H](n2cnc3c(N)ncnc32)[C@H](O)[C@@H]1O` [Compound 9d, N,N′-(Biphenyl-3,3′-diylybismethylene)bis{(2′′S)-2′′-amino-4′′-[5′′′-deoxy-5′′′-(methylamino)-adenosyl]butanamide}] are 1.6-fold and 0.075 ± 0.004 µM. The corresponding values for `CN(CC[C@H](N)C(=O)NCC#CC#CCNC(=O)[C@@H](N)CCN(C)C[C@H]1O[C@@H](n2cnc3c(N)ncnc32)[C@H](O)[C@@H]1O)C[C@H]1O[C@@H](n2cnc3c(N)ncnc32)[C@H](O)[C@@H]1O` [Compound 9e, N,N′-(Hexa-2,4-diyne-1,6-diyl)bis{(2′S)-2′-amino-4′-[5′′-deoxy-5′′-(methylamino)-adenosyl]butanamide}] are 1.1-fold and 0.111 ± 0.005 µM. Take `C[N+](C)(CC[C@H](N)C(=O)NCc1ccc(CNC(=O)[C@@H](N)CC[N+](C)(C)C[C@H]2O[C@@H](n3cnc4c(N)ncnc43)[C@H](O)[C@@H]2O)cc1)C[C@H]1O[C@@H](n2cnc3c(N)ncnc32)[C@H](O)[C@@H]1O` [Compound 10a, N,N′-(1,4-Phenylenebismethylene)bis{(2′S)-2′-amino-4′-[5′′-deoxy-5′′-(dimethylamino)-adenosyl]butanamide}iodide tetratrifluoroacetic acid salt]: under “bivalent ligand 1 mM, DMSO 2%”, the EC50 came to 0.015 ± 0.005 µM.

Consider `C[N+](C)(CC[C@H](N)C(=O)NCc1cccc(CNC(=O)[C@@H](N)CC[N+](C)(C)C[C@H]2O[C@@H](n3cnc4c(N)ncnc43)[C@H](O)[C@@H]2O)c1)C[C@H]1O[C@@H](n2cnc3c(N)ncnc32)[C@H](O)[C@@H]1O` [Compound 10b, N,N′-(1,3-Phenylenebismethylene)bis{(2′S)-2′-amino-4′-[5′′-deoxy-5′′-(dimethylamino)-adenosyl]butanamide}iodide tetratrifluoroacetic acid salt], for which, for the setting “bivalent ligand 1 mM, DMSO 2%”, the EC50 was 0.01 ± 0.001 µM.

Consider `CN(CC[C@H](N)C(=O)NCc1ccccc1)C[C@H]1O[C@@H](n2cnc3c(N)ncnc32)[C@H](O)[C@@H]1O` [Compound 11, 5′-[{(3′′S)-4′′-Benzylamino-3′′-amino-4′′-oxobutyl}methylamino]-5′-deoxyadenosine], for which the EC50 under setting [1] was found to be 0.12 ± 0.01 µM. In the case of `C[N+](C)(CC[C@H](N)C(=O)NCc1ccccc1)C[C@H]1O[C@@H](n2cnc3c(N)ncnc32)[C@H](O)[C@@H]1O` [Compound 12, 5′-[{(3′′S)-4′′-Benzylamino-3′′-amino-4′′-oxobutyl}dimethylamino]-5′-deoxyadenosine iodide ditrifluoroacetic acid salt], the EC50 under setting [1] is 0.036 ± 0.006 µM. In the case of `CN(CCCC(=O)NCCCCn1nnc2c1CCCCCC2OCCNC(=O)CCCN(C)C[C@H]1O[C@@H](n2cnc3c(N)ncnc32)[C@H](O)[C@@H]1O)C[C@H]1O[C@@H](n2cnc3c(N)ncnc32)[C@H](O)[C@@H]1O` (stereo partly shown) [Compound 15b, 4-((Adenosyl)(methyl)amino)-N-(2-(1-(4-(4-((adenosyl) (methyl)amino)butanamido)butyl)-4,5,6,7,8,9-hexahydro-1H-cycloocta[d][1,2,3]triazol-4-yloxy)ethyl)butanamide and 4-(-((adenosyl)(methyl)amino)-N-(2-(1-(4-(4-(-((adenosyl)(methyl)amino)butanamido)butyl)-4,5,6,7,8,9-hexahydro-1H-cycloocta[d][1,2,3]triazol-9-yloxy)ethyl)butanamide], the EC50 (unquaternised ligands 2 mM) came out at 0.076 ± 0.002 µM.

Turning to `C[N+](C)(CCCC(=O)NCCCCn1nnc2c1CCCCCC2OCCNC(=O)CCC[N+](C)(C)C[C@H]1O[C@@H](n2cnc3c(N)ncnc32)[C@H](O)[C@@H]1O)C[C@H]1O[C@@H](n2cnc3c(N)ncnc32)[C@H](O)[C@@H]1O.[I-].[I-]` (stereo partly shown) [Compound 16b, 4-((Adenosyl)(dimethyl)amino)-N-(2-(1-(4-(4-((adenosyl) (dimethyl)amino)butanamido)butyl)-4,5,6,7,8,9-hexahydro-1H-cycloocta[d][1,2,3]triazol-4-yloxy)ethyl)butanamide diiodide and 4-(-((adenosyl)(dimethyl)amino)-N-(2-(1-(4-(4-(-((adenosyl)(dimethyl)amino)butanamido)butyl)-4,5,6,7,8,9-hexahydro-1H-cycloocta[d][1,2,3]triazol-9-yloxy)ethyl)butanamidediiodide], for the setting “quaternised ligands 2 mM”, the “Fold-improvement over monovalent control 5” value is listed as 3.6-fold and the EC50 worked out at 0.042 ± 0.003 µM. Take `CN(CCCC(=O)NCCNC(=O)CCCN(C)C[C@H]1O[C@@H](n2cnc3c(N)ncnc32)[C@H](O)[C@@H]1O)C[C@H]1O[C@@H](n2cnc3c(N)ncnc32)[C@H](O)[C@@H]1O` [Compound 18a, N,N′-Di-[5′-deoxy-5′-N-methyl-N′-(4-butyryl)-adenosine]-1,2-ethylenediamine]: the “Fold-improvement over monovalent control 4” value is recorded as 1.4-fold. The EC50 (unquaternised ligands 2 mM) turned out to be 0.7 ± 0.05 µM. In the same order, the values of `CN(CCCC(=O)NCCCNC(=O)CCCN(C)C[C@H]1O[C@@H](n2cnc3c(N)ncnc32)[C@H](O)[C@@H]1O)C[C@H]1O[C@@H](n2cnc3c(N)ncnc32)[C@H](O)[C@@H]1O` [Compound 18b, N,N′-Di-[5′-deoxy-5′-N-methyl-N′-(4-butyryl)]-1,3-diaminopropane] are 3.1-fold and 0.32 ± 0.04 µM. The corresponding values for `CN(CCCC(=O)NCCCCNC(=O)CCCN(C)C[C@H]1O[C@@H](n2cnc3c(N)ncnc32)[C@H](O)[C@@H]1O)C[C@H]1O[C@@H](n2cnc3c(N)ncnc32)[C@H](O)[C@@H]1O` [Compound 18c, N,N′-Di-[5′-deoxy-5′-N-methyl-N′-(4-butyryl)-adenosine]-1,4-diaminobutane] are 4.5-fold and 0.22 ± 0.02 µM. Turning to `CN(CCCC(=O)NCCCCCCNC(=O)CCCN(C)C[C@H]1O[C@@H](n2cnc3c(N)ncnc32)[C@H](O)[C@@H]1O)C[C@H]1O[C@@H](n2cnc3c(N)ncnc32)[C@H](O)[C@@H]1O` [Compound 18d, N,N′-Di-[5′-deoxy-5′-N-methyl-N′-(4-butyryl)-adenosine]-1,6-diaminohexane], the EC50 (unquaternised ligands 2 mM) amounted to 0.047 ± 0.001 µM.
